Experimental data published in patent US10670605B2, “Cysteine reactive probes and uses thereof” (The Scripps Research Institute, priority 2015, dated 2020).

Key:
Experiment in all cases: Competitive isoTOP-ABPP, cell lysates;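 for isoTOP-ABPP reactivity profile ratio, O00170 C122: Heavy/light ratio DMSO over fragment-treated so higher means more cysteine engagement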;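 for isoTOP-ABPP reactivity profile ratio, Q99873 C109: Heavy/light ratio DMSO over fragment-treated so higher means more cysteine engagement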
Type in all cases: binding
Conditions in all cases: 500 μm, in-vitro_ramos_231
[1] = biological target: T1, ACAT1 C126 (P24752) (Homo sapiens, UniProt P24752)
T1 sequence (P24752 34-427): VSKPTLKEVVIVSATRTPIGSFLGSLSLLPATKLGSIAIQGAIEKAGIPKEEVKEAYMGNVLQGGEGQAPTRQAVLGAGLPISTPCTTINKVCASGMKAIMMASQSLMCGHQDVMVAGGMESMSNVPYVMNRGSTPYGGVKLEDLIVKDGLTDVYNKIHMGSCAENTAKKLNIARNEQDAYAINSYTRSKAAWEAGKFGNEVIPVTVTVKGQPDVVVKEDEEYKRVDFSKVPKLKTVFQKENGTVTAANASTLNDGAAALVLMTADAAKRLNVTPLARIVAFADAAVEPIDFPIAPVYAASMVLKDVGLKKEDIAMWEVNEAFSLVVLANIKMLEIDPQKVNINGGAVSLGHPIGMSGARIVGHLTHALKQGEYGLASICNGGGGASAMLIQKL

[2] = biological target: T2, ACAT1 C413 (P24752) (Homo sapiens, UniProt P24752)
T2 sequence (P24752 34-427): T1 sequence (P24752 34-427)

[3] = biological target: T3, ACAT1 C196 (P24752) (Homo sapiens, UniProt P24752)
T3 sequence (P24752 34-427): T1 sequence (P24752 34-427)

[4] = biological target: T4, ACAT1 C119 (P24752) (Homo sapiens, UniProt P24752)
T4 sequence (P24752 34-427): T1 sequence (P24752 34-427)

[5] = biological target: T5, AIP C122 (O00170) (Homo sapiens, UniProt O00170);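 note: Heavy/light ratio DMSO over fragment-treated so higher means more cysteine engagement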
T5 sequence (O00170 1-330): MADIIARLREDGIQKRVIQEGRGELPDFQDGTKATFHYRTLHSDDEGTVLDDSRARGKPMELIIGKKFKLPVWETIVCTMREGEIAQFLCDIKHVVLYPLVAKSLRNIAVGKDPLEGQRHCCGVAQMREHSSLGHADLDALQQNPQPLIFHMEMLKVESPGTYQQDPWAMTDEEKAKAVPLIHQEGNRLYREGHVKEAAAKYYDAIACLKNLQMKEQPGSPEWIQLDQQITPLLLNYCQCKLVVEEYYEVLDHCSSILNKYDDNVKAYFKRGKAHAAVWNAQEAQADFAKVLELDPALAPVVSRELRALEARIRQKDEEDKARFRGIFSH
Experimental: (§1) TEV digests were pressure loaded onto a 250 μm (inner diameter) fused silica capillary column packed with C18 resin (Aqua 5 μm, Phenomenex). The samples were analyzed by multidimensional liquid chromatography tandem mass spectrometry (MudPIT), using an LTQ-Velos Orbitrap mass spectrometer (Thermo Scientific) coupled to an Agilent 1200-series quaternary pump. The peptides were eluted onto a biphasic column with a 5 μm tip (100 μm fused silica, packed with C18 (10 cm) and bulk strong cation exchange resin (3 cm, SCX, Phenomenex,)) in a 5-step MudPIT experiment, using 0%, 30%, 60%, 90%, and 100% salt bumps of 500 mM aqueous ammonium acetate and using a gradient of 5-100% buffer B in buffer A (buffer A: 95% water, 5% acetonitrile, 0.1% formic acid; buffer B: 5% water, 95% acetonitrile, 0.1% formic acid) as has been described in Weerapana et al. Nat Protoc 2:1414-1425 (2007). Data was collected in data-dependent acquisition mode with dynamic exclusion enabled (20 s, repeat of 2). One full MS (MS1) scan (400-1800 m/z) was followed by 30 MS2 scans (ITMS) of the nth most abundant ions.
(§2) The ratios of heavy/light for each unique peptide (DMSO/compound treated; isoTOP-ABPP ratios, R values) were quantified with in-house CIMAGE software, using default parameters (3 ms s per peak and signal to noise threshold 2.5). Site-specific engagement of electrophilic fragments was assessed by blockade of IA-alkyne probe labeling. […] Ratios for unique peptide entries were calculated for each experiment; overlapping peptides with the same modified cysteine (e.g. different charge states, MudPIT chromatographic steps or tryptic termini) were grouped together and the median ratio was reported as the final ratio (R). The peptide ratios reported by CIMAGE were further filtered to ensure the removal or correction of low quality ratios in each individual dataset. The quality filters applied were the following: removal of half tryptic peptides; for ratios with high standard deviations from the median (90% of the median or above) the lowest ratio was taken instead of the median; removal of peptides with R=20 and only a single ms2 event triggered during the elution of the parent ion; manual annotation of all the peptides with ratios of 20, removing any peptides with low-quality elution profiles that remained after the previous curation steps. Proteome reactivity values for individual fragments were computed as the percentage of the total quantified cysteine-containing peptides with R values≥4 (defined as liganded cysteines) for each replicate experiment and the final proteome reactivity value was calculated as the mean for all replicate experiments for each fragment from both MDA-MB-231 and Ramos cellular proteomes.
(§3) Biological replicates of the same compound and cell-line were averaged if the standard deviation was below 60% of the mean; otherwise the lowest value of the ratio set was taken.

[6] = biological target: T6, PDIA6 C55 (Q15084) (Homo sapiens, UniProt Q15084)
T6 sequence (Q15084 20-440): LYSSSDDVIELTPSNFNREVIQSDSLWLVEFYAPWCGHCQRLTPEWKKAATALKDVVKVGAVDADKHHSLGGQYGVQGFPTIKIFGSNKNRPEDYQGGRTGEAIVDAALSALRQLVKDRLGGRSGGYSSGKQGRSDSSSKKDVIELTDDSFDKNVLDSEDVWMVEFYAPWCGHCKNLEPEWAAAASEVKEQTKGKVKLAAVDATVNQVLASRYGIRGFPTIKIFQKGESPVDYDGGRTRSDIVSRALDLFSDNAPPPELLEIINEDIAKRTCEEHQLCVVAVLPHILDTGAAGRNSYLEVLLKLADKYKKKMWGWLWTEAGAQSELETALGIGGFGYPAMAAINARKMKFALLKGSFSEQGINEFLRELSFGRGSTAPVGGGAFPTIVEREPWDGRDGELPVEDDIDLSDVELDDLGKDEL
Experimental: as §1, §2, §3

[7] = biological target: PRMT1 C109 (Q99873) (Homo sapiens, UniProt Q99873);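 for isoTOP-ABPP reactivity profile ratio, Q99873 C109: Heavy/light ratio DMSO over fragment-treated so higher means more cysteine engagement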
Experimental: as §1, §2, §3

[8] = biological target: SAMHD1 C522 (Q9Y3Z3) (Homo sapiens, UniProt Q9Y3Z3)
Experimental: as §1, §2, §3

[9] = biological target: UBE2L3 C86 (P68036) (Homo sapiens, UniProt P68036)
Experimental: as §1, §2, §3

[10] = biological target: ZNF217 C286 (O75362) (Homo sapiens, UniProt O75362)
Experimental: as §1, §2, §3

[11] = biological target: T7, PDIA6 C190 (Q15084) (Homo sapiens, UniProt Q15084)
T7 sequence (Q15084 20-440): T6 sequence (Q15084 20-440)
Experimental: as §1, §2, §3

[12] = biological target: XPO1 C34 (O14980) (Homo sapiens, UniProt O14980)
Experimental: as §1, §2, §3

[13] = biological target: LRBA C1704 (P50851) (Homo sapiens, UniProt P50851)
Experimental: as §1, §2, §3

[14] = biological target: GSTP1 C48 (P09211) (Homo sapiens, UniProt P09211)
Experimental: as §1, §2, §3

[15] = biological target: GNB2L1 C182 (P63244) (Homo sapiens, UniProt P63244)
Experimental: as §1, §2, §3

[16] = biological target: T8, IDH2 C308 (P48735) (Homo sapiens, UniProt P48735)
T8 sequence (P48735 40-452): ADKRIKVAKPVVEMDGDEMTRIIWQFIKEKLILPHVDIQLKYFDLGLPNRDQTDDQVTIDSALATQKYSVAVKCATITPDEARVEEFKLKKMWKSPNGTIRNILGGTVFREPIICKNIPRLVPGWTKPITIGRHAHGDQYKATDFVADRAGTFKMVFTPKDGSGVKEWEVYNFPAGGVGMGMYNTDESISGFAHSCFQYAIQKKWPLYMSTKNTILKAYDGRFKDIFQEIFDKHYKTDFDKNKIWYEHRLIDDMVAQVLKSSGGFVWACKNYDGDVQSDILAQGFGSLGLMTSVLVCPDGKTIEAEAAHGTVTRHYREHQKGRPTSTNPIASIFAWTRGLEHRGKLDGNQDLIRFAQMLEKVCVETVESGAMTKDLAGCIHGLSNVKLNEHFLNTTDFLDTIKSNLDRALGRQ
Experimental: as §1, §2, §3

[17] = biological target: IDH1 C269 (O75874) (Homo sapiens, UniProt O75874)
Experimental: as §1, §2, §3

[18] = biological target: T9, PDE12 C108 (Q6L8Q7) (Homo sapiens, UniProt Q6L8Q7)
T9 sequence (Q6L8Q7 43-609): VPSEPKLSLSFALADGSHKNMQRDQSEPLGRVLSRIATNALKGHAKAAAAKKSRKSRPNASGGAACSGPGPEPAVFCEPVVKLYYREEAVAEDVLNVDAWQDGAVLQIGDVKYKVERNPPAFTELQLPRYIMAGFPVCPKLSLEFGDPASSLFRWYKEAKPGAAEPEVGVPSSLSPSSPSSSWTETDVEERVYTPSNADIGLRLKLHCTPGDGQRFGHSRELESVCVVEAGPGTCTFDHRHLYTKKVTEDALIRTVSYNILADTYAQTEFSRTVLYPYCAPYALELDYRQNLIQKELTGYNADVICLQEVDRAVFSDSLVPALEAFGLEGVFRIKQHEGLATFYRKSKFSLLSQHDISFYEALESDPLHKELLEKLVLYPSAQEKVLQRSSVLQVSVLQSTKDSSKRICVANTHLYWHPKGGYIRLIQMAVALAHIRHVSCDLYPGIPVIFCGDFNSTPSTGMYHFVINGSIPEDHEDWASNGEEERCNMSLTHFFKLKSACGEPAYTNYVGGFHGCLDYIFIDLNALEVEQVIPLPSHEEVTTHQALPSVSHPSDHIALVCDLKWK
Experimental: as §1, §2, §3

[19] = biological target: T10, UBE2S C118 (Q16763) (Homo sapiens, UniProt Q16763)
T10 sequence (Q16763 1-222): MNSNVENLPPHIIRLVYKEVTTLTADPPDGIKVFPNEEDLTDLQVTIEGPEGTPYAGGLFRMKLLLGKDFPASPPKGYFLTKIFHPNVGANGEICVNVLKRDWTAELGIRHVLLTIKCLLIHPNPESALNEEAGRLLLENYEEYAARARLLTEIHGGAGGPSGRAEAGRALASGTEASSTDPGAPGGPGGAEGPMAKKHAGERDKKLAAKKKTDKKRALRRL
Experimental: as §1, §2, §3

[20] = biological target: SMARCC2 C145 (Q8TAQ2) (Homo sapiens, UniProt Q8TAQ2)
Experimental: as §1, §2, §3

Cc1ccc(C(F)(F)F)cc1NC(=O)CCl [compound 49]
isoTOP-ABPP reactivity profile ratio, P24752_C126 [1]: 20.0
isoTOP-ABPP reactivity profile ratio, P24752_C413 [2]: 2.6
isoTOP-ABPP reactivity profile ratio, P24752_C196 [3]: 4.7
isoTOP-ABPP reactivity profile ratio, P24752_C119 [4]: 4.9
isoTOP-ABPP reactivity profile ratio, O00170_C122 [5]: 4.8
isoTOP-ABPP reactivity profile ratio, Q15084_C55 [6]: 12.8
isoTOP-ABPP reactivity profile ratio, Q99873_C109 [7]: 2.0
isoTOP-ABPP reactivity profile ratio, Q9Y3Z3_C522 [8]: 3.0
isoTOP-ABPP reactivity profile ratio, P68036_C86 [9]: 1.9
isoTOP-ABPP reactivity profile ratio, O75362_C286 [10]: 1.0
isoTOP-ABPP reactivity profile ratio, Q15084_C190 [11]: 7.7
isoTOP-ABPP reactivity profile ratio, O14980_C34 [12]: 1.9
isoTOP-ABPP reactivity profile ratio, P50851_C1704 [13]: 4.0

O=C(CCl)Nc1cc(C(=O)O)cc(C(F)(F)F)c1 [compound 36]
isoTOP-ABPP reactivity ratio, P24752_C413 [2]: 2.7
isoTOP-ABPP reactivity ratio, P24752_C196 [3]: 1.5
isoTOP-ABPP reactivity ratio, P24752_C119 [4]: 1.2
isoTOP-ABPP reactivity ratio, P09211_C48 [14]: 1.6
isoTOP-ABPP reactivity ratio, Q99873_C109 [7]: 1.0
isoTOP-ABPP reactivity ratio, P63244_C182 [15]: 1.3
isoTOP-ABPP reactivity ratio, P48735_C308 [16]: 1.3
isoTOP-ABPP reactivity ratio, O75874_C269 [17]: 1.7
isoTOP-ABPP reactivity ratio, O14980_C34 [12]: 1.3

COC(=O)C1Cc2ccccc2CN1C(=O)CCl (stereo not shown) [compound 39]
isoTOP-ABPP reactivity ratio, P24752_C413 [2]: 2.7
isoTOP-ABPP reactivity ratio, P24752_C196 [3]: 3.0
isoTOP-ABPP reactivity ratio, P24752_C119 [4]: 1.7
isoTOP-ABPP reactivity ratio, P09211_C48 [14]: 2.0
isoTOP-ABPP reactivity ratio, Q15084_C55 [6]: 3.9
isoTOP-ABPP reactivity ratio, Q6L8Q7_C108 [18]: 3.2
isoTOP-ABPP reactivity ratio, Q99873_C109 [7]: 1.5
isoTOP-ABPP reactivity ratio, Q9Y3Z3_C522 [8]: 1.1
isoTOP-ABPP reactivity ratio, P63244_C182 [15]: 1.0
isoTOP-ABPP reactivity ratio, P68036_C86 [9]: 1.9
isoTOP-ABPP reactivity ratio, Q16763_C118 [19]: 1.4
isoTOP-ABPP reactivity ratio, O75362_C286 [10]: 20.0
isoTOP-ABPP reactivity ratio, Q15084_C190 [11]: 7.0
isoTOP-ABPP reactivity ratio, O14980_C34 [12]: 1.3
isoTOP-ABPP reactivity ratio, Q8TAQ2_C145 [20]: 1.2
